{"source": "paper PMC7029660", "about": "“Functional Division Between the RecA1 and RecA2 Proteins in Myxococcus xanthus” (Frontiers in Microbiology, 2020)", "target": "T1, RecA1 (Myxococcus xanthus, UniProt Q1DCC5)", "T1 construct": "gene recA; full-length gene in pET15b, expressed in E. coli BL21(DE3), Ni-NTA purified", "T1 sequence (Q1DCC5 1-342)": "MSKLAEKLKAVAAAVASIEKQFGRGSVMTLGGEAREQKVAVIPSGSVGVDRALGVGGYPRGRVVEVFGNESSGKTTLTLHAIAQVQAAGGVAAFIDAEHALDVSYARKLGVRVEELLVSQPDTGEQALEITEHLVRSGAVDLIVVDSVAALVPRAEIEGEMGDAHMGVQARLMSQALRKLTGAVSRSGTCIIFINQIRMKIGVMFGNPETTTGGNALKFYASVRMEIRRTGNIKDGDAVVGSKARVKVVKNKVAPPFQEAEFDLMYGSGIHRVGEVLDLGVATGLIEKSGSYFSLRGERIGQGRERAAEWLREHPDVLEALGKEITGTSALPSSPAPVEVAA", "assay": "ATPase assay, released inorganic phosphate (kit)", "type": "biochemical", "settings": "3 mM ATP, 5 mM MgCl2, 1 mM CaCl2, pH 7.4, 32 °C; with or without ssDNA or dsDNA"}
{"smiles": "Nc1ncnc2c1ncn2[C@@H]1O[C@H](COP(=O)(O)OP(=O)(O)OP(=O)(O)O)[C@@H](O)[C@H]1O", "note": "[ATP]", "values": [{"measurement": "ATPase assay, released inorganic phosphate (kit)", "value": "RecA1 and RecA2 both exhibited low ATPase activities"}]}
